Test results: the supplement of paper PMC10307832

Tests used:
Assay in all cases: relative viability (nuclei count vs DMSO), 5 days (fraction); higher = more cells survive
[1] = compound: CC(C)C[C@@H](C(=O)N[C@H](C(=O)OC1CCCC1)c1ccccc1)[C@H](O)C(=O)NO [Tosedostat] + N=C(N)NC(=N)NCCc1ccccc1 [Phenformin] (partner 250 µM)
In short: (§1)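 Relative viability equals treated-well nuclei counts divided by vehicle-well nuclei counts. Counts came from 4× images of lung cancer cell lines grown in 1536-well plates for 5 days after pin-tool dosing on the day after seeding. Dosing used one drug alone or a fixed anchor-drug dose plus five library-drug doses (not always all listed) in √10 steps, and values are medians of duplicate plates.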

[2] = compound: CC(C)C[C@@H](C(=O)N[C@H](C(=O)OC1CCCC1)c1ccccc1)[C@H](O)C(=O)NO [Tosedostat] + O=C(CCCCCCC(=O)Nc1ccccc1)NO [Vorinostat] (partner 1 µM)
In short: as §1

[3] = compound: CC1=NN=C(O1)C2=NN=C(C=C2)N3CCC(CC3)OC4=C(C=CC(=C4)F)Cl + CS(=O)(=O)CCNCc1ccc(-c2ccc3ncnc(Nc4ccc(OCc5cccc(F)c5)c(Cl)c4)c3c2)o1 [Lapatinib] (partner 2 µM)
In short: as §1

[4] = compound: CC1=NN=C(O1)C2=NN=C(C=C2)N3CCC(CC3)OC4=C(C=CC(=C4)F)Cl + O=C(CCCCCCC(=O)Nc1ccccc1)NO [Vorinostat] (partner 1 µM)
In short: as §1

Cell Line	relative viability ([1]; first compound 0.02 µM)	relative viability ([1]; first compound 0.06325 µM)	relative viability ([1]; first compound 0.2 µM)	relative viability ([1]; first compound 0.6325 µM)	relative viability ([1]; first compound 2 µM)	relative viability ([2]; first compound 0.02 µM)	relative viability ([2]; first compound 0.06325 µM)	relative viability ([2]; first compound 0.2 µM)	relative viability ([2]; first compound 0.6325 µM)	relative viability ([2]; first compound 2 µM)	relative viability ([3]; first compound 0.253 µM)	relative viability ([3]; first compound 0.8 µM)	relative viability ([3]; first compound 2.53 µM)	relative viability ([3]; first compound 8 µM)	relative viability ([4]; first compound 0.253 µM)	relative viability ([4]; first compound 0.8 µM)	relative viability ([4]; first compound 2.53 µM)	relative viability ([4]; first compound 8 µM)
H3255	0.361	0.369	0.386	0.407	0.402	0.759	0.752	0.799	0.608	0.783	0.24	0.193	0.266	0.269	0.581	0.597	0.533	0.557
SK-MES-1	0.696	0.686	0.663	0.568	0.54	1.13	1.03	0.963	1.1	1	0.452	0.528	0.445	0.518	0.781	0.765	0.766	0.702
NCI-H1651	0.324	0.328	0.293	0.267	0.306	0.564	0.609	0.548	0.556	0.472	0.695	0.784	0.691	0.708	0.431	0.241	0.389	0.336
LXF-289	0.495	0.493	0.479	0.495	0.399	0.818	0.716	0.822	0.703	0.771	0.643	0.672	0.696	0.584	0.637	0.418	0.586	0.463
HCC-827	0.401	0.443	0.397	0.355	0.301	0.545	0.94	0.861	0.73	0.718	0.201	0.197	0.176	0.2	0.382	0.207	0.322	0.377
LK-2	0.38	0.529	0.455	0.259	0.347	0.34	0.364	0.24	0.266	0.251	0.982	0.945	0.947	0.818	0.352	0.256	0.291	0.295
HCC-366	0.573	0.623	0.638	0.532	0.6	0.426	0.305	0.394	0.386	0.352	0.384	0.41	0.393	0.406	0.0995	0.112	0.127	0.0801
BEN	0.263	0.251	0.269	0.253	0.273	0.645	0.602	0.678	0.761	0.888	0.607	0.729	0.743	0.61	0.566	0.536	0.551	0.538
NCI-H322M	0.756	0.705	0.72	0.704	0.708	0.855	0.958	0.887	0.995	0.802	0.467	0.581	0.592	0.551	0.812	0.87	0.948	0.799
NCI-H1395	0.418	0.424	0.419	0.41	0.446	0.773	0.77	0.743	0.742	0.595	0.849	0.782	1.02	0.873	0.656	0.563	0.671	0.593
201T	0.425	0.445	0.461	0.428	0.445	1.01	0.997	0.99	0.962	0.981	0.392	0.471	0.524	0.435	0.474	0.501	0.478	0.479
NCI-H2170	0.409	0.424	0.381	0.396	0.408	0.923	0.786	0.963	0.724	0.777	0.268	0.241	0.291	0.26	0.449	0.366	0.473	0.362
NCI-H661	0.259	0.259	0.312	0.304	0.265	0.837	0.826	0.796	0.775	0.814	0.541	0.477	0.542	0.417	0.802	0.745	0.702	0.629
RERF-LC-KJ	0.406	0.395	0.461	0.364	0.312	0.692	0.676	0.604	0.681	0.619	0.623	0.545	0.584	0.57	0.347	0.467	0.453	0.493
HCC-15	0.512	0.46	0.432	0.348	0.32	0.941	0.849	0.826	0.757	0.745	0.418	0.408	0.415	0.414	0.534	0.431	0.511	0.554
NCI-H1666	0.547	0.527	0.554	0.612	0.567	1.06	1.16	1.06	1.04	1.05	0.303	0.554	0.608	0.428	0.735	0.862	0.868	0.864
ABC-1	0.201	0.201	0.247	0.23	0.206	1.33	1.29	0.954	0.974	0.693	1.13	1.07	0.92	0.887	0.542	0.487	0.402	0.525
NCI-H650	0.497	0.478	0.435	0.442	0.405	0.752	0.528	0.416	0.334	0.308	0.999	0.833	0.839	0.851	0.451	0.248	0.294	0.329
